Where a name gives a salt, the structure may show the parent alone. *1 amine or outer side, *2 acyl side, *3 side chain or, on linkers, in order; H or OH if unused. Where a SMILES comes first, the peptide text is derived from it. Bridges are numbered along the chain shown (N, C = ends). Roman numbers before positions name the chains, in order. [ ]: non-standard residue; d: D form. Actinocin(9to1) = Cc1c2oc3c(C)ccc(C(=O)[*:1])c3nc-2c(C(=O)[*:2])c(N)c1=O; NMeV = CN[C@H](C(=O)O)C(C)C; Sar = CNCC(=O)O
Key:
[1] = tested on: BioMAP Systems (human primary cell-based assay systems: endothelial cells, smooth muscle cells, PBMC, fibroblasts); test: BioMAP Systems screen scored for desired anti-restenosis parameter modulation; settings: for Total score for desired parameter modulation, Score (out of 45): 1 point per desired activity present across BioMAP systems of Table 2, paclitaxel average of 11 runs, rapamycin average of 13 runs
Text: The BioMAP Systems that model the relevant biological processes (smooth muscle cell hyperplasia, tissue remodeling, inflammation etc, including the measurements of readout parameters listed in Table 1), and are used for screening are listed in Table 2. Each of the cells listed in Table 1 can be utilized in one or more of the systems described below. For example, smooth muscle cells are used in CASM3C; CASMNo; SM3C and SMNo systems. Such BioMap systems are generally primary human cell based assays. Compounds are screened in one or more such BioMap systems, usually in at least about two such systems, and may be screened in at least three, at least four, at least five, at least ten, and up to all of the assays set forth in Table 2.
These assays are scored according to their modulation of the selected readout parameters.
Human umbilical vein endothelial cells (HUVEC) were pooled from multiple donors, cultured according to standard methods, and plated into microtiter plates at passage 4. Human neonatal foreskin fibroblasts (HDF) from 3 donors were pooled and cultured according to standard methods. 24 hr before stimulation with cytokines, confluent HDF in microtitre plates were serum starved. Coronary artery endothelial cells (CAEC), coronary artery smooth muscle cells (CASMC) and umbilical artery smooth muscle cells (SMC) cultured according to standard methods. Peripheral blood mononuclear cells (PBMC) were prepared from buffy coats from normal human donors according to standard methods. Concentrations/amounts of agents added to confluent microtitre plates to build each system were as follows: cytokines (IL-1 beta, 1 ng/ml; TNF-alpha, 5 ng/ml; IFN-gamma, 20 ng/ml; TGF-beta, 5 ng/ml; IL-4, 5 ng/ml), activators (histamine, 10 microM; SAg, 20 ng/ml or LPS, 0.2 ng/ml), PBMC (7.5×10^4 cells/well).
Compounds were prepared in the solvent as directed, added 1 hr before stimulation of the cells, and were present during the 24 hr stimulation period for the measurement of parameters listed in Table 2. For proliferation, compounds added 1 hr before stimulation of the cells with cytokines, and were present during the 96 hr. If prepared in DMSO, the final concentration of solvent was 0.1% or less.
The levels of readout parameters were measured by ELISA. Briefly, microtiter plates are treated, blocked, and then incubated with primary antibodies or isotype control antibodies (0.01-0.5 microg/ml) for 1 hr. After washing, plates were incubated with a peroxidase-conjugated anti-mouse IgG secondary antibody or a biotin-conjugated anti-mouse IgG antibody for 1 hr followed by streptavidin-HRP for 30 min. Plates were washed and developed with TMB substrate and the absorbance (OD) was read at 450 nm (subtracting the background absorbance at 650 nm). Quantitation of TNF-alpha in the LPS system was done using a commercially available kit according to the manufacturer's directions. Proliferation of endothelial cells (HUVEC and CAEC), smooth muscle cels (SMC and CASMC), and PBMC (T cells) was quantitated by Alamar blue or SRB reduction.
Mean OD values for each parameter were calculated from triplicate samples per experiment. The mean value obtained for each parameter in a treated sample was then divided by the mean value from an appropriate control to generate a ratio. All ratios were then log10 transformed. 99% prediction envelopes (grey shading in Figures) were calculated for historical controls.

[2] = tested on: BioMAP Systems cells (SRB total protein, PBMC viability, cell morphology); test: Toxicity assessments in BioMAP Systems (SRB, PI, visual)
Method: Adverse effects of compounds on cells were determined by (1) measuring alterations in total protein (Sulforodhamine B or SRB assay); (2) measuring the viability of peripheral blood mononuclear cells (incorporation of propidium iodide, PI); and (3) microscopic visualization. SRB was performed by staining cells with 0.1% sulforhodamine B after fixation with 10% TCA, and reading wells at 560 nm. PBMC viability was assessed by adding propidium iodide (10 microgram/ml) to PBMC that had been cultured for 24 hours in the presence of activators and measuring the percentage of cells that incorporated dye by flow cytometry after 10 minutes. Samples were assessed visually according to the following scheme: 2.0=cobblestone (unactivated phenotype); 1.0=activated (normal phenotype); 0.5=lacy or sparse; 0.375=rounded; 0.25=sparse and granular; 0.1=no cells in well.
Cellular toxicity in BioMAP Systems is indicated if the SRB parameter (sulforhodamine B, measure of total protein loss) is <−0.3, the PI parameter (propidium iodine, measure of lymphotoxicity) is <−0.1, and the Visual parameter (change in cell morphology) is <−0.6.

[3] = tested on: neointimal hyperplasia after balloon vascular injury; settings: rat; reported by Pan et al., 2003; cited from earlier work
[4] = tested on: smooth muscle cell proliferation relative to endothelial cell proliferation; test: Proliferation of smooth muscle cells relative to endothelial cells in BioMAP systems 3C, SM3C, CANo, CASMNO, CA3C, CASM3C; format: cell-based, human; settings: all conditions, all doses tested, independent of source of primary cells
Text: One can further refine the selection of drugs for the treatment of restenosis by measuring their relative effects at multiple doses on proliferation of smooth muscle cells and endothelial cells derived from different sources (umbilical cord or coronary artery), and under different growth conditions (proliferation driven by growth factors only, or in the presence of pro-inflammatory factors that are normally found at the restenotic site). Statistical analysis of cell proliferation in BioMAP systems 3C, SM3C, CANo, CASMNO, CA3C, and CASM3C listed in Table 1 was performed for candidate drugs 8-Azaguanine, Amodiaquin Dihydrochloride Dihydrate, Atovaquone, Ciclopirox, Cis-(Z)-Flupentixol Dihydrochloride, Clofilium Tosylate, Monobenzone, Primaquine Diphosphate, Securinine, Syrosingopine, Terconazole, and Trimethylcolchicinic Acid. […]
The levels of readout parameters were measured by ELISA. […] Plates were washed and developed with TMB substrate and the absorbance (OD) was read at 450 nm (subtracting the background absorbance at 650 nm). Quantitation of TNF-alpha in the LPS system was done using a commercially available kit according to the manufacturer's directions. Proliferation of endothelial cells (HUVEC and CAEC), smooth muscle cels (SMC and CASMC), and PBMC (T cells) was quantitated by Alamar blue or SRB reduction. […]

| Compound | Total score for desired parameter modulation, Score (out of 45) [1] | also measured |
| --- | --- | --- |
| C[C@]12CC[C@@H]3c4ccc(O)cc4CC[C@H]3[C@@H]1CC[C@@H]2O [17beta-estradiol] |  | Doses at which inactive in BioMAP Systems (lower than) [1]: < 3.3 µM; Dose showing signs of cellular toxicity ([2]; human): 10 µM |
| Cc1c2oc3c(C)ccc(C(=O)N[C@@H]4C(=O)N[C@H](C(C)C)C(=O)N5CCC[C@H]5C(=O)N(C)CC(=O)N(C)[C@@H](C(C)C)C(=O)O[C@@H]4C)c3nc-2c(C(=O)N[C@@H]2C(=O)N[C@H](C(C)C)C(=O)N3CCC[C@H]3C(=O)N(C)CC(=O)N(C)[C@@H](C(C)C)C(=O)O[C@@H]2C)c(N)c1=O [Actinomycin D] (I: T[dV]P[Sar][NMeV] / II: T[dV]P[Sar][NMeV]; ester I:1-I:C, II:1-II:C; linker I:N-II:N via Actinocin(9to1)) |  | Doses at which inactive in BioMAP Systems (lower than) [1]: < 0.0005 µM; Dose showing signs of cellular toxicity ([2]; BioMAP Systems): 0.004572 µM |
| CCN(CC)Cc1cc(Nc2ccnc3cc(Cl)ccc23)ccc1O [Amodiaquin Dihydrochloride Dihydrate] | 23 |  |
| O=C1C(O)=C([C@H]2CC[C@H](c3ccc(Cl)cc3)CC2)C(=O)c2ccccc21 [Atovaquone] | 22 |  |
| C=C(C)[C@@H]1CC[C@]2(CO)CC[C@]3(C)[C@H](CC[C@@H]4[C@@]5(C)CC[C@H](O)C(C)(C)[C@@H]5CC[C@]43C)[C@@H]12 [Betulin] | 31 |  |
| O=C(O)CCCc1ccc(N(CCCl)CCCl)cc1 [Chlorambucil] | 30 |  |
| Cc1cc(C2CCCCC2)n(O)c(=O)c1 [Ciclopirox Ethanolamine] | 20 |  |
| Cl.Cl.OCCN1CCN(CC/C=C2/c3ccccc3Sc3ccc(C(F)(F)F)cc32)CC1 [Cis-(Z)-Flupentixol Dihydrochloride] | 33 |  |
| CC(=O)N(O)CCCCCNC(=O)CCC(=O)N(O)CCCCCNC(=O)CCC(=O)N(O)CCCCCN [Deferoxamine Mesylate] | 26 |  |
| COc1cc2nc(N3CCN(C(=O)C4COc5ccccc5O4)CC3)nc(N)c2cc1OC (stereo not drawn) [Doxazosin Mesylate] | 22 |  |
| Nc1nc2nn[nH]c2c(=O)[nH]1 [Drug 8-Azaguanine, 8-Azaguanine] | 28 |  |
| O=c1ccc2cc(O)c(O)cc2o1 [Esculetin] | 25 | Effect on neointimal hyperplasia after balloon vascular injury [3]: inhibit neointimal hyperplasia |
| Oc1ccc(OCc2ccccc2)cc1 [Monobenzene] | 24 |  |
| COC(=O)C1=C(C)NC(C)=C(C(=O)OC)C1c1ccccc1[N+](=O)[O-] [Nifedipine] | 28 |  |
| CC(=O)O[C@H]1C(=O)[C@@]2(C)[C@H]([C@H](OC(=O)c3ccccc3)[C@]3(O)C[C@H](OC(=O)[C@H](O)[C@@H](NC(=O)c4ccccc4)c4ccccc4)C(C)=C1C3(C)C)[C@]1(OC(C)=O)CO[C@@H]1C[C@@H]2O [Paclitaxel] | 26 ± 2 | Activity over tested dose range in BioMAP Systems ([1]; tested doses): active over the entire dose range; Signs of toxicity in BioMAP Systems [2]: no signs of toxicity |
| COc1cc(NC(C)CCCN)c2ncccc2c1 (stereo not drawn) [Primaquine Diphosphate] | 27 |  |
| CO[C@H]1C[C@@H]2CC[C@@H](C)[C@@](O)(O2)C(=O)C(=O)N2CCCC[C@H]2C(=O)O[C@H]([C@H](C)C[C@@H]2CC[C@@H](O)[C@H](OC)C2)CC(=O)[C@H](C)/C=C(\C)[C@@H](O)[C@@H](OC)C(=O)[C@H](C)C[C@H](C)/C=C/C=C/C=C/1C [Rapamycin] | 24 ± 1 | Signs of toxicity in BioMAP Systems [2]: no signs of toxicity |
| O=C1C=C2C=C[C@@H]3C[C@@]2(O1)[C@H]1CCCCN31 [Securinine] | 28 |  |
| CCOC(=O)Oc1c(OC)cc(C(=O)O[C@@H]2C[C@@H]3CN4CCc5c([nH]c6cc(OC)ccc56)[C@H]4C[C@@H]3[C@H](C(=O)OC)[C@H]2OC)cc1OC [Syrosingopine] | 22 |  |
| CC(C)N1CCN(c2ccc(OCC3COC(Cn4cncn4)(c4ccc(Cl)cc4Cl)O3)cc2)CC1 (stereo not drawn) [Terconazole] | 22 |  |
| COc1cc2c(c(OC)c1OC)-c1ccc(O)c(=O)cc1C(N)CC2 (stereo not drawn) [Trimethylcolchicinic Acid] | 29 | Preferential effect on smooth muscle cell versus endothelial cell proliferation [4]: preferential effect on smooth muscle cells over endothelial cells |
| C[C@@H]1C[C@H]2[C@@H]3CCC4=CC(=O)C=C[C@]4(C)[C@@]3(F)[C@@H](O)C[C@]2(C)[C@@]1(O)C(=O)CO [dexamethasone] |  | Signs of toxicity in BioMAP Systems [2]: no signs of toxicity |
| Clofilium Tosylate | 22 |  |
